# Bridge positions count the residues as written; N and C are the ends. Ends that are not written are not given here.
# Assays:
# Assay type in all cases: in vivo, rat
# [1] = Example 3: OGTT after 3 days of oral treatment in DIO rats; settings: doses of 0.5, 1 and 2 mg/kg p.o.
# Protocol: (§1) Drug administration were given by per oral (p.o.) gavage b.i.d. during the study period and as single dose in the morning prior to start of OGTT.
# (§2) Animals were given 2 g/kg single dose dissolved in milliQ H20.
# Following the initial (1st) OGTT, animals were randomized into treatment groups based on FBG and BW. Animals were pre-treated 3 days (b.i.d.) prior to 2nd OGTT. The study was performed in an x-over design with each animal being its own control.
# (§3) OGTT Following Overnight Fasting (16 h):
# Blood sampling and glycemia were measured by heated tail venous puncture. Whole blood glucose levels were determined with an ACCU-CHEK® Avia blood glucose meter (Roche Diagnostics, Rotkreuz, Switzerland). Blood (approx 300 μl) is collected in 1 ml MiniCollect K3EDTA plasma-tube (Greiner-Bio-One GmbH, Frickenhausen, Germany), inverted, and stored on ice. Tubes are centrifuged 3000×g (5000 rpm in table centrifuge) for 10 min at 4° C. and plasma obtained. Plasma samples are stored at −20° C. until analysis. A total of ˜2.5 ml blood is obtained during OGTT (˜0.3% of body weight).
# Statistical analysis was performed by one-way ANOVA followed by the Dunnett's post hoc test for multiple comparison. Student's t-test was performed to compare two paired group. All analysis was performed using GRAPHPAD PRISM software (GraphPad Prism, San Diego, Calif. U.S.A). Incremental area under curve (iAUC) during OGTT was calculated by the trapezoidal method. A value of P<0.05 was considered to be significant. All data are presented as mean±standard error of the mean (SEM).
# FIG. 10A, FIG. 10B, FIG. 10C, FIG. 10D, FIG. 10E, and FIG. 10F show the effect of oral sCT versus oral UGPs on glucose tolerance during OGTT in DIO rats. Three different doses of oral sCT/UGP284/UGP298/UGP302 containing 0.5, 1 and 2 mg/kg compound were applied by gavage twice daily to 4 groups of rats for 3 days prior to OGTT. The experimental set-up was a cross-over design. * P<0.05, ** P<0.01, *** P<0.001 vs oral vehicle. Results are presented as means±SEM.
# [2] = Example 7: insulin tolerance test in Zucker Diabetic Fatty rats; settings: ZDF rats; metformin 400 mg/kg/day oral, UGP302 5 μg/kg/day s.c.
# Protocol: To assess the potential of UGP302 (SEQ ID NO: 15) in combination with metformin, Zucker Diabetic Fatty rats were used. At the age of 6 weeks 40 rats were randomized into four groups according to HbA1c, FPG and BW. The groups were: Control (Vehicle), Metformin 400 mg/kg/day, UGP302 5 μg/kg/day and the combination of the two molecules in the stated respective amounts. The treatments were given once daily, and metformin was dosed orally, while UGP302 was given subcutaneously, and the animals were treated for 8 weeks. Fasting blood glucose (FPG) and non-fasted blood glucose (PPG) were monitored biweekly, while HbA1c was measured at termination.
# To further assess the effect of both single doses of each molecule and the combination of these at those same doses, the rats underwent an oral glucose tolerance test (OGTT, FIGS. 23A-23B) and an insulin tolerance test (ITT, FIGS. 24A-24B).
# [3] = Example 2: OGTT after 3 days of oral treatment in DIO rats; settings: 0.5, 1 and 2 mg/kg p.o. b.i.d. 3 days prior to OGTT, cross-over, vs oral vehicle
# Protocol: as §1, §2
# Following the initial (1st) OGTT, animals are randomized into treatment groups based on FBG and BW. Animals will be pre-treated 3 days (b.i.d.) prior to 2nd OGTT. Dosing will be performed in the morning (7-8 am) and afternoon (3-4 pm).
# The study was performed in an x-over design with each animal being its own control.
# as §3
# Whole blood glucose levels were determined with an ACCU-CHEK® Avia blood glucose meter (Roche Diagnostics, Rotkreuz, Switzerland). […]
# Statistical analysis was performed by one-way ANOVA followed by the Dunnett's post hoc test for multiple comparison. […] Incremental area under curve (iAUC) during OGTT was calculated by the trapezoidal method. […]
# Three different doses of oral sCT/calcitonin mimetic 1 containing 0.5, 1 and 2 mg/kg compound were applied by gavage twice daily to 4 groups of rats for 3 days prior to OGTT. […] FIG. 7A and FIG. 7B show the effect of oral sCT versus oral UGP 302 at a first dosage on glucose tolerance during OGTT in DIO rats as measured in Example 2. FIG. 8A and FIG. 8B show the effect of oral sCT versus oral UGP 302 at a second dosage on glucose tolerance during OGTT in DIO rats as measured in Example 2.
Substance,glucose tolerance during OGTT [1],insulin tolerance (ITT) [2],glucose iAUC during OGTT [3]
"Ac-CSNLSTCVLGKLSQELHKLQTYPRTDVGANAP-NH2 (Ac-CSNLSTCVLGKLSQELHKLQTYPRTDVGANAP-NH2; ends and bridges not checked) [UGP302, calcitonin mimetic]",improvement in glucose tolerance,individually improve,–
"salmon calcitonin (CSNLSTCVLGKLSQELHKLQTYPRTNTGSGTP-NH2; disulfide 1-7; ends not checked) [sCT, reference compound]",–,–,significantly reduced glucose iAUC

# Source: patent publication US9862754B2, “Peptide analogs for treating diseases and disorders” (KeyBioscience AG, priority 2011, dated 2018)
